Patent US20110071155A1, “Tricyclic Nitrogen Containing Compounds And Their Use As Antibacterials” (priority 2008, published 2011)
Converted amounts (≈) assume the structure as drawn.

Experiments:
[1] = system: Mycobacterium tuberculosis H37Rv; experiment: Mycobacterium tuberculosis H37Rv Inhibition Assay (resazurin MIC); type: cell-based; details: ATCC 25618 / H37Rv, H37Rv strain (ATCC25618), Middlebrook 7H9+ADC, six days at 37° C., resazurin fluorescence after 48 hours, read-out: MtB MIC
[2] = Antimicrobial Activity Assay: whole-cell broth microdilution (CLSI M7-A7); type: cell-based, Gram-positive and Gram-negative organisms; details: at least one of S. aureus, S. pneumoniae, E. faecalis, H. influenzae, M. catarrhalis, E. coli, read-out: MIC against at least one of the organisms listed
Protocol: Antimicrobial Activity Assay: Whole-cell antimicrobial activity was determined by broth microdilution using the Clinical Laboratory Standards Institute (CLSI) recommended procedure, Document M7-A7, “Methods for Dilution Susceptibility Tests for Bacteria that Grow Aerobically”. Compounds were evaluated against Gram-positive organisms, including Staphylococcus aureus, Streptococcus pneumoniae, and Enterococcus faecalis. In addition, compounds were evaluated against Gram-negative organisms including Haemophilus influenzae, Moraxella catarrhalis, and Escherichia coli. The minimum inhibitory concentration (MIC) was determined as the lowest concentration of compound that inhibited visible growth. A mirror reader was used to assist in determining the MIC endpoint.

Compound	MIC [1]	MIC [2]
O=c1ccc2ncc(=O)n3c2n1CC3CN1CCC(NC/C=C/c2cncc(F)c2)CC1 (stereo not drawn) [Example 5, 2-[(4-{[(2E)-3-(5-fluoro-3-pyridinyl)-2-propen-1-yl]amino}-1-piperidinyl)methyl]-1,2-dihydro-3H,8H-2a,5,8a-triazaacenaphthylene-3,8-dione]	0.273 µg/mL (≈ 0.625 µM)	–
O=c1ccc2ccc(=O)n3c2n1C[C@H]3CN1CCC(NC/C=C/c2cc(F)ccc2F)CC1 [Example 1, (1R)-1-[(4-{[(2E)-3-(2,5-difluorophenyl)-2-propen-1-yl]amino}-1-piperidinyl)methyl]-1,2-dihydro-4H,9H-imidazo[1,2,3-ij]-1,8-naphthyridine-4,9-dione]	0.071 µg/mL (≈ 0.157 µM)	< 2 µg/mL
O=c1ccc2ncc(=O)n3c2n1CC3CN1CCC(NCCOc2cccc(F)c2)CC1 (stereo not drawn) [Example 6, 2-{[4-({2-[(3-fluorophenyl)oxy]ethyl}amino)-1-piperidinyl]methyl}-1,2-dihydro-3H,8H-2a,5,8a-triazaacenaphthylene-3,8-dione]	0.824 µg/mL (≈ 1.87 µM)	< 2 µg/mL
O=c1ccc2ncc(=O)n3c2n1CC3CN1CCC(NCCNc2cccc(F)c2)CC1 (stereo not drawn) [Example 7, 2-{[4-({2-[(3-Fluorophenyl)amino]ethyl}amino)-1-piperidinyl]methyl}-1,2-dihydro-3H,8H-2a,5,8a-triazaacenaphthylene-3,8-dione]	0.071 µg/mL (≈ 0.162 µM)	–
O=c1ccc2ncc(=O)n3c2n1CC3CN1CCC(NCCCc2cccc(F)c2)CC1 (stereo not drawn) [Example 3, 2-[(4-{[3-(3-fluorophenyl)propyl]amino}-1-piperidinyl)methyl]-1,2-dihydro-3H,8H-2a,5,8a-triazaacenaphthylene-3,8-dione]	0.82 µg/mL (≈ 1.87 µM)	< 2 µg/mL
O=c1ccc2ccc(=O)n3c2n1C[C@H]3CN1CCC(NC/C=C/c2cncc(F)c2)CC1 [Example 4, (1R)-1-[(4-{[(2E)-3-(5-fluoro-3-pyridinyl)-2-propen-1-yl]amino}-1-piperidinyl)methyl]-1,2-dihydro-4H,9H-imidazo[1,2,3-ij]-1,8-naphthyridine-4,9-dione]	0.544 µg/mL (≈ 1.25 µM)	< 2 µg/mL
O=c1ccc2ncc(=O)n3c2n1CC3CN1CCC(NC/C=C/c2cccc(F)c2)CC1 (stereo not drawn) [Example 2, 2-[(4-{[(2E)-3-(3-fluorophenyl)-2-propen-1-yl]amino}-1-piperidinyl)methyl]-1,2-dihydro-3H,8H-2a,5,8a-triazaacenaphthylene-3,8-dione]	0.102 µg/mL (≈ 0.234 µM)	< 2 µg/mL
